From patent US20250368645A1, “BETA CARBOLINE ANALOGUES AS SELECTIVE AND BIASED KAPPA OPIOID RECEPTORS AGONISTS FOR TREATING VARIOUS ASSOCIATED PATHOPHYSIOLOGICAL CONDITIONS” (COUNCIL OF SCIENTIFIC AND INDUSTRIAL RESEARCH, priority 2022, published 2025)

How the values were obtained:
Format in all cases: cell-based
human KOR = human KOR (Homo sapiens, UniProt P41145); experiment: GloSensor assay, Gi-mediated cAMP inhibition in HEK-293T cells transfected with human KOR; details: given as Log IC50 (negative values); agonist activity, inhibition of FSK-stimulated cAMP; read-out: GloSensor Assay (Log IC50) KOR (converted)
MOR = MOR (Homo sapiens, UniProt P35372); experiment: GloSensor assay at MOR; details: given as Log IC50 (negative values)
DOR = DOR (Homo sapiens, UniProt P41143); experiment: GloSensor assay at DOR; details: given as Log IC50 (negative values)
Chain of DOR (P41143 whole entry): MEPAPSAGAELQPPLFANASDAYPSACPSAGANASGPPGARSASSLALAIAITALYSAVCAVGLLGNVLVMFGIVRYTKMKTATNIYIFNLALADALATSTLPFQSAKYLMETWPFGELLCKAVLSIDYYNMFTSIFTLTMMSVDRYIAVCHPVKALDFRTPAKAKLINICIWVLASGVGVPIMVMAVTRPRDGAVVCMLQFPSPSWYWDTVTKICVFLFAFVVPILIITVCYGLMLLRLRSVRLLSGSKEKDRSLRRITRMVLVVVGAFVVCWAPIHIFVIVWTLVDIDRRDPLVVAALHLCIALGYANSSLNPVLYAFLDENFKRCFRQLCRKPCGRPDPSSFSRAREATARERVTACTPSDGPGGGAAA

Chain of human KOR (P41145 whole entry): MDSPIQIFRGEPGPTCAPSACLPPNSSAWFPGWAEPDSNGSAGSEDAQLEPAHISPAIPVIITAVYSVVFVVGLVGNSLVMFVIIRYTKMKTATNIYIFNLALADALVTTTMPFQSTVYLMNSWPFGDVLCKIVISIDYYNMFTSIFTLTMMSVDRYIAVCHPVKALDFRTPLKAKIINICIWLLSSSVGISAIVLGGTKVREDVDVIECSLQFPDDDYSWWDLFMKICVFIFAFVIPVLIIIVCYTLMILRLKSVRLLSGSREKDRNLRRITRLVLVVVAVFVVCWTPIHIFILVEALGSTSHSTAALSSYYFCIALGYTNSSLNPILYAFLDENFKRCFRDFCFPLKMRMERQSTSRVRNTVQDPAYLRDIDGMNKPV
Chain of MOR (P35372 whole entry): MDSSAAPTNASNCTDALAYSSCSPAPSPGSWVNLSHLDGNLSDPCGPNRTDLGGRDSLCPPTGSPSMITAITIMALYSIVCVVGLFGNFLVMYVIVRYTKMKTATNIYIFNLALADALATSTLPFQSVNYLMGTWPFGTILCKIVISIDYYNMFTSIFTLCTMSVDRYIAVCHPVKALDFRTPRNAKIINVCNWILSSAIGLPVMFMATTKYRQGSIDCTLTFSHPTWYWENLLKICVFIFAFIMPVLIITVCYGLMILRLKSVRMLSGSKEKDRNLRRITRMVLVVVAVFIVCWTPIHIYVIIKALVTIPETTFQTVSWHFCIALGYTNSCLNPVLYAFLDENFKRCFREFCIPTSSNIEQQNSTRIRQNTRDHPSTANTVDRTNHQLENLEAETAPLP

IC50 (human KOR) [µM] | IC50 (MOR) [µM] | IC50 (DOR) [µM] | SMILES
> 10 | 1.26 | 2 | Clc1ccccc1-c1c2c3[nH]c4ccccc4c3cc[n+]2cn1-c1ccc(Br)cc1 [8aeb, 2-(4-Bromophenyl)-1-(2-chlorophenyl)-2,11-dihydroimidazo[1′,5′:1,2]pyrido[3,4-b]indol-4-ium chloride]
0.316 | > 10 | > 10 | Clc1ccc(-n2c[n+]3ccc4c5ccccc5[nH]c4c3c2-c2cccc(Cl)c2)cc1 [8afc, 1-(3-Chlorophenyl)-2-(4-chlorophenyl)-2,11-dihydrolmidazo[1′,5′:1,2]pyrido[3,4-b]indol-4-ium chloride]
1.82 | > 10 | > 10 | Fc1ccc(-n2c[n+]3ccc4c5ccccc5[nH]c4c3c2-c2cccc(Cl)c2)cc1 [8afd, 1-(3-Chlorophenyl)-2-(4-fluorophenyl)-2,11-dihydroimidazo[1′,5′:1,2]pyrido[3,4-b]indol-4-ium chloride]
> 10 | > 10 | > 10 | Fc1ccc(-c2c3c4[nH]c5ccccc5c4cc[n+]3cn2-c2ccccc2)cc1 [8aga, 1-(4-Fluorophenyl)-2-phenyl-2,11-dihydroimidazo[1′,5′:1,2]pyrido[3,4-b]indol-4-ium chloride]
> 10 | > 10 | > 10 | Fc1ccc(-c2c3c4[nH]c5ccccc5c4cc[n+]3cn2-c2ccc(Br)cc2)cc1 [8agb, 2-(4-Bromophenyl)-1-(4-fluorophenyl)-2,11-dihydroimidazo[1′,5′:1,2]pyrido[3,4-b]indol-4-ium chloride]
> 10 | > 10 | > 10 | Fc1ccc(-c2c3c4[nH]c5ccccc5c4cc[n+]3cn2-c2ccc(Cl)cc2)cc1 [8agc, 2-(4-Chlorophenyl)-1-(4-fluorophenyl)-2,11-dihydrolmidazo[1′,5′:1,2]pyrido[3,4-b]indol-4-ium chloride]
> 10 | > 10 | > 10 | Fc1ccc(-c2c3c4[nH]c5ccccc5c4cc[n+]3cn2-c2ccc(F)cc2)cc1 [8agd, 1,2-Bis(4-fluorophenyl)-2,11-dihydroimidazo[1′,5′:1,2]pyrido[3,4-b]indol-4-ium chloride]
> 10 | > 10 | > 10 | Fc1ccc(-c2c3c4[nH]c5ccccc5c4cc[n+]3cn2-c2cccc(Br)c2)cc1 [8age, 2-(3-Bromophenyl)-1-(4-fluorophenyl)-2,11-dihydroimidazo[1′,5′:1,2]pyrido[3,4-b]indol-4-ium chloride]
> 10 | > 10 | > 10 | Fc1ccc(-c2c3c4[nH]c5ccccc5c4cc[n+]3cn2-c2cccc(Cl)c2)cc1 [8agf, 2-(3-Chlorophenyl)-1-(4-fluorophenyl)-2,11-dihydroimidazo[1′,5′:1,2]pyrido[3,4-b]indol-4-ium chloride]
0.0912 | > 10 | > 10 | Fc1cccc(-c2c3c4[nH]c5ccccc5c4cc[n+]3cn2-c2ccc(Cl)cc2)c1 [8aic, 2-(4-Chlorophenyl)-1-(3-fluorophenyl)-2,11-dihydrolmidazo[1′,5′:1,2]pyrido[3,4-b]indol-4-ium chloride]
0.2 | > 10 | > 10 | Fc1ccc(-n2c[n+]3ccc4c5ccccc5[nH]c4c3c2-c2cccc(F)c2)cc1 [8aid, 1-(3-Fluorophenyl)-2-(4-fluorophenyl)-2,11-dihydroimidazo[1′,5′:1,2]pyrido[3,4-b]indol-4-ium]
> 10 | > 10 | > 10 | O=[N+]([O-])c1ccc(-c2c3c4[nH]c5ccccc5c4cc[n+]3cn2-c2ccc(F)cc2)cc1 [8ald, 2-(4-Fluorophenyl)-1-(4-nitrophenyl)-2,11-dihydrolmidazo[1′,5′:1,2]pyrido[3,4-b]indol-4-ium chloride]
0.0398 | > 10 | > 10 | c1ccc(-n2c[n+]3ccc4c5ccccc5[nH]c4c3c2-c2cc3ccccc3o2)cc1 [8amd, 1-(Benzofuran-2-yl)-2-phenyl-2,11-dihydroimidazo[1′,5′:1,2]pyrido[3,4-b]indol-4-ium chloride]
0.209 | > 10 | > 10 | Fc1ccc(-n2c[n+]3ccc4c5ccccc5[nH]c4c3c2-c2cccs2)cc1 [8and, 2-(4-Fluorophenyl)-1-(thiophen-2-yl)-2,11-dihydroimidazo[1′,5′:1,2]pyrido[3,4-b]indol-4-ium chloride]
> 10 | > 10 | > 10 | COc1cc(-c2c3c4[nH]c5ccccc5c4cc[n+]3cn2-c2ccc(F)cc2)cc(OC)c1OC [8apd, 2-(4-Fluorophenyl)-1-(3,4,5-trimethoxyphenyl)-2,11-dihydroimidazo[1′,5′:1,2]pyrido[3,4-b]indol-4-ium chloride]
> 10 | > 10 | > 10 | COC(=O)c1cc2c3ccccc3[nH]c2c2c(-c3ccc(Br)cc3)n(-c3ccc(Cl)cc3)c[n+]12 [8bbc, 1-(4-Bromophenyl)-2-(4-chlorophenyl)-5-(methoxycarbonyl)-2,11-dihydroimidazo[1′,5′:1,2]pyrido[3,4-b]indol-4-iumchloride]

IC50 (human KOR) [µM] | IC50 (MOR) [µM] | IC50 (DOR) [µM] | SMILES
> 10 | > 10 | > 10 | COC(=O)c1cc2c3ccccc3[nH]c2c2c(-c3ccc(Br)cc3)n(-c3ccc(F)cc3)c[n+]12 [8bbd, 1-(4-Bromophenyl)-2-(4-fluorophenyl)-5-(methoxycarbonyl)-2,11-dihydroimidazo[1′,5′:1,2]pyrido[3,4-b]indol-4-iumchloride]
> 10 | > 10 | > 10 | COC(=O)c1cc2c3ccccc3[nH]c2c2c(-c3ccc(C)cc3)n(-c3ccc(F)cc3)c[n+]12 [8bkd, 2-(4-Fluorophenyl)-5-(methoxycarbonyl)-1-(p-tolyl)-2,11-dihydroimidazo[1′,5′:1,2]pyrido[3,4-b]indol-4-iumchloride]
3.16 | > 10 | > 10 | COC(=O)c1cc2c3ccccc3[nH]c2c2c(C)n(-c3ccc(F)cc3)c[n+]12 [8bpd, 2-(4-Fluorophenyl)-5-(methoxycarbonyl)-1-methyl-2,11-dihydroimidazo[1′,5′:1,2]pyrido[3,4-b]indol-4-ium chloride]
> 10 | > 10 | > 10 | Brc1ccc2[nH]c3c(cc[n+]4cn(-c5ccccc5)c(-c5ccccc5Br)c34)c2c1 [8cca, 8-Bromo-1-(2-bromophenyl)-2-phenyl-2,11-dihydrolmidazo[1′,5′:1,2]pyrido[3,4-b]indol-4-ium chloride]
> 10 | > 10 | > 10 | Cn1c2ccccc2c2cc[n+]3cn(-c4ccc(Cl)cc4)c(-c4ccc(Br)cc4)c3c21 [8dbc, 1-(4-Bromophenyl)-2-(4-chlorophenyl)-11-methyl-2,11 dihydroimidazo[1′,5′:1,2]pyrido[3,4-b]indol-4-iumchloride]
> 10 | > 10 | > 10 | Cn1c2ccccc2c2cc[n+]3cn(-c4ccc(F)cc4)c(-c4ccc(Br)cc4)c3c21 [8dbd, 1-(4-Bromophenyl)-2-(4-fluorophenyl)-11-methyl-2,11-dihydroimidazo[1′,5′:1,2]pyrido[3,4-b]indol-4-iumchloride]
> 10 | > 10 | > 10 | Cn1c2ccccc2c2cc[n+]3cn(-c4ccc(Cl)cc4)c(-c4ccc(Cl)cc4)c3c21 [8ddc, 1,2-Bis(4-chlorophenyl)-11-methyl-2,11-dihydroimidazo[1′,5′:1,2]pyrido[3,4-b]indol-4-iumchloride]
> 10 | > 10 | > 10 | Brc1ccc(-c2c3c4[nH]c5ccccc5c4cc[n+]3cn2Cc2ccccc2)cc1 [9aaa, 2-Benzyl-1-(4-bromophenyl)-2,11-dihydroimidazo[1′,5′:1,2]pyrido[3,4-b]indol-4-ium chloride]
0.263 | > 10 | > 10 | Fc1ccc(Cn2c[n+]3ccc4c5ccccc5[nH]c4c3c2-c2ccc(Br)cc2)cc1 [9aab, 1-(4-Bromophenyl)-2-(4-fluorobenzyl)-2,11-dihydroimidazo[1′,5′:1,2]pyrido[3,4-b]indol-4-ium chloride]
> 10 | > 10 | > 10 | CC(C)(C)c1ccc(Cn2c[n+]3ccc4c5ccccc5[nH]c4c3c2-c2ccc(Br)cc2)cc1 [9aac, 1-(4-Bromophenyl)-2-(4-(tert-butyl)benzyl)-2,11-dihydroimidazo[1′,5′:1,2]pyrido[3,4-b]indol-4-ium chloride]
> 10 | > 10 | > 10 | FC(F)(F)c1ccc(Cn2c[n+]3ccc4c5ccccc5[nH]c4c3c2-c2ccc(Br)cc2)cc1 [9aad, 1-(4-Bromophenyl)-2-(4-(trifluoromethyl)benzyl)-2,11-dihydroimidazo[1′,5′:1,2]pyrido[3,4-b]indol-4-ium chloride]
3.31 | > 10 | > 10 | COc1ccc(Cn2c[n+]3ccc4c5ccccc5[nH]c4c3c2-c2ccc(Br)cc2)cc1 [9aae]
> 10 | > 10 | > 10 | Fc1ccc(F)c(Cn2c[n+]3ccc4c5ccccc5[nH]c4c3c2-c2ccc(Br)cc2)c1 [9aaf]
0.166 | > 10 | > 10 | COc1ccc(Cn2c[n+]3ccc4c5ccccc5[nH]c4c3c2-c2ccc(Br)cc2)cc1OC [9aag, 1-(4-Bromophenyl)-2-(3,4-dimethoxybenzyl)-2,11-dihydroimidazo[1′,5′:1,2]pyrido[3,4-b]indol-4-ium chloride]
0.0759 | > 10 | > 10 | COc1ccc(Cn2c[n+]3ccc4c5ccccc5[nH]c4c3c2-c2ccc(Cl)cc2)cc1 [9abe, 1-(4-Chlorophenyl)-2-(4-methoxybenzyl)-2,11-dihydrolmidazo[1′,5′:1,2]pyrido[3,4-b]indol-4-ium chloride]
